These results are taken from paper PMC10472371, “Discovery of E2730, a novel selective uncompetitive GAT1 inhibitor, as a candidate for anti‐seizure medication” (Epilepsia Open, 2023).

Bounds are passed on as bounds.

Data set [1] can be described thus: Accelerating rotarod test in mice (motor coordination). As to conditions: male, ddY, mouse, in vivo, oral, 1 hour before test, read-out: TD50 (95% CI) in mouse rotarod test. Here is the method:
Motor incoordination is one of the most common AEs associated with the use of ASMs.[9] Therefore, motor coordination was evaluated in mice receiving E2730 to assess if it is a new ASM candidate with a wide margin between therapeutic effects and AEs. E2730 (50–400 mg/kg) or vehicle was orally administered in ddY mice (male, 5 weeks old) 1 hour before the rotarod test, and the latency for mice to fall off the rod was measured. The rod rotation of the rotarod apparatus (Muromachi Kikai) was continuously accelerated from 0 to 40 rpm in a cut‐off time of 180 seconds.

The next data set has as its system Fmr1 KO mice. The data set is described as follows: Audiogenic seizures in Fmr1 knockout mice (fragile X syndrome model). The class given is in vivo. As to conditions: Mus musculus, oral, 1 hour before audio stimulation, read-out: ED50 (95% CI) for tonic-clonic seizures, audiogenic seizures. Here is the method:
Fragile X syndrome (FXS) is the most common single‐gene cause of autism spectrum disorder, typically due to mutations in the FMR1 gene; 10–18% of patients with FXS experience seizures.[8] The Fmr1 knockout (KO) mouse is an established animal model for FXS. E2730 (2.5–300 mg/kg) or vehicle was orally administered to Fmr1 KO mice (male, 20–27 days postnatal; Jackson Laboratory) 1 hour prior to drug evaluation. The mice were placed in a sound‐attenuating acoustic chamber and acclimated for 5 minutes and exposed to an audio stimulation (110 dB, 60‐second duration), and the behavior of the stimulated mice was video recorded and monitored for tonic–clonic seizures.

For data set [2], the target named is T1, rat brain synaptosomal membranes (Rattus norvegicus, UniProt P23978).
T1 construct: Synaptosomal membranes were prepared using the whole brain without cerebellum, brainstem, or olfactory bulb; from tissue; host or cells: rat whole brain without cerebellum, brainstem or olfactory bulb; synaptosomal membranes
The experiment in a line: Competitive displacement of [3H]E2730 binding with ASMs. As to conditions: 20 nM [3H]E2730; unlabeled E2730 0.1-10 μM; ASMs at 10-3000 μM. On the procedure:
Unlabeled E2730 (0.1–10 μM) was also assessed to confirm a representative displacement. Non‐specific binding was defined as the residual binding observed in the presence of 1 mM unlabeled E2730. Radioactivity of the synaptosome‐bound radioligand was measured in the same way as described above.

The target in data set [3] is T2, hGABAAR (containing α1, β3, and γ2 subunits) (Homo sapiens, UniProt P14867+P18507+P28472).
T2 construct: expressed in transfected cells; host or cells: HEK-293
The data set is described as follows: GABA-induced current in hGABAAR-expressing HEK-293 cells, whole-cell patch-clamp. The class given is cell-based. As to conditions: up to 100 μM. On the procedure: Data represent the mean ± SEM of 3 independent experiments. Control response is GABA (13 μM)-induced current amplitude. […] Cells in voltage clamp were maintained at -80 mV throughout the experiments following the voltage protocol.

The next data set deals with T3, hGAT2 (Homo sapiens, UniProt Q9NSD5).
T3 construct: expressed in transfected cells; host or cells: HEK293
T3 sequence (Q9NSD5 1-602): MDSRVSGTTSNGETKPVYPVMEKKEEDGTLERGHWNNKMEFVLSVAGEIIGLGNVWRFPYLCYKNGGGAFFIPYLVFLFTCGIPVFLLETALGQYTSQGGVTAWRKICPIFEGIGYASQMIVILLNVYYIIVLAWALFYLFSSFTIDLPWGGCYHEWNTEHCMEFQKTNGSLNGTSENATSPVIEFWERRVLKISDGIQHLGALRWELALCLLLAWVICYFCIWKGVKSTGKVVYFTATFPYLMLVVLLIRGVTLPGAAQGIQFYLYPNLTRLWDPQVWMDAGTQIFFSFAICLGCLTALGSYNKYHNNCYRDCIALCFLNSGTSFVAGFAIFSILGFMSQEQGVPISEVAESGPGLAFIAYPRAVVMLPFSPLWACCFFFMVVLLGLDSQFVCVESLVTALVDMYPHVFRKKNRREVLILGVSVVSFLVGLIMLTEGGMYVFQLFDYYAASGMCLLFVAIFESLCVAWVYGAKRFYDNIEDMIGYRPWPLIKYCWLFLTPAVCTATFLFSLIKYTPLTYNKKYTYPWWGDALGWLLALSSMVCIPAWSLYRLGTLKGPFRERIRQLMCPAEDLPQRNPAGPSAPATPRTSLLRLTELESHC
The experiment in a line: [3H]GABA uptake in hGAT2 stably expressing HEK293 cells. It is filed as cell-based. As to conditions: 50 μM [3H]GABA. On the procedure:
HEK293 cells stably expressing human GAT1 (hGAT1), GAT2 (hGAT2), GAT3 (hGAT3), or betaine/GABA transporter 1 (hBGT‐1) were plated onto 96‐well microtiter plates at a density of 4.0 × 10^4 cells/well in Dulbecco's Modified Eagle's Medium (DMEM, containing 10% fetal bovine serum, 100 units/mL penicillin, 100 μg/mL streptomycin, 1% non‐essential amino acid solution, and 25 mM HEPES) and incubated overnight at 37°C in a 5% CO2 atmosphere. After washing the cells with Hanks’ balanced salt solution (HBSS, containing 140 mg/L CaCl2, 100 mg/L MgCl2, 20 mM HEPES, and 10 mM NaOH), E2730 (0.0128–1000 μM) was added to the plate. Following the addition of 50 μM [^3H]GABA, cells were incubated for 5 minutes at 37°C in a 5% CO2 atmosphere and then washed with cold HBSS. Washed cells were incubated in a scintillator for 1 hour at room temperature, followed by radioactivity measurements using a liquid scintillation counter.

The test system of data set [4] is 6 Hz-44 mA psychomotor seizure mice. The data set is described as follows: Pharmaco-resistant 6 Hz-44 mA psychomotor seizures in mice. As to conditions: Mus musculus; oral, 1 hour before electrostimulation, ddY mice; read-out: ED50 (95% CI), 6 Hz-44 mA psychomotor seizures. It is filed as in vivo, mouse. On the procedure:
Psychomotor seizures were stimulated by applying currents (44 mA, 6 Hz, 0.2 millisecond rectangular pulse width, 3‐second duration each) via a corneal electrode (SEN‐7203; Nihon Kohden). E2730 (5–50 mg/kg), levetiracetam (Tokyo Chemical Industry; 20–200 mg/kg), or vehicle was orally administered to ddY mice (male, 5 weeks old; Japan SLC Inc.) 1 hour before electrostimulation. […] Behavioral seizures observed in mice were classified into the following four types: stun, forelimb clonus, twitching of the vibrissae, and Straub‐tail.

For data set [5], the system named is panel of 86 receptors, transporters, and ion channels. The data set is described as follows: Binding panel assay. The following applies: tested at 30 and 300 μM. Here is the method: In this binding panel assay, E2730 was tested at 30 and 300 μM.

T2 sequence (P14867 28-456): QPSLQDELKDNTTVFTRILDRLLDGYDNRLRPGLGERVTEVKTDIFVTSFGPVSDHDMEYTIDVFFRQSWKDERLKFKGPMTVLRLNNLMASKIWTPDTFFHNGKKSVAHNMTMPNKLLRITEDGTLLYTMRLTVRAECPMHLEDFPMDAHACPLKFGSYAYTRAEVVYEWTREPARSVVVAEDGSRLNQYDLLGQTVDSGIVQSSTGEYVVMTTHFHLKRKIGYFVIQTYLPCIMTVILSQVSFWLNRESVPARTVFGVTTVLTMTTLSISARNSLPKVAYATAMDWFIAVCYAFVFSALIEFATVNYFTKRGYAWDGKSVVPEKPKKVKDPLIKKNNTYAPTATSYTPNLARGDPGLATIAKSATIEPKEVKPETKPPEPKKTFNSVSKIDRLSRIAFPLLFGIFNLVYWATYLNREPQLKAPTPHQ
T2 sequence (P28472 26-473): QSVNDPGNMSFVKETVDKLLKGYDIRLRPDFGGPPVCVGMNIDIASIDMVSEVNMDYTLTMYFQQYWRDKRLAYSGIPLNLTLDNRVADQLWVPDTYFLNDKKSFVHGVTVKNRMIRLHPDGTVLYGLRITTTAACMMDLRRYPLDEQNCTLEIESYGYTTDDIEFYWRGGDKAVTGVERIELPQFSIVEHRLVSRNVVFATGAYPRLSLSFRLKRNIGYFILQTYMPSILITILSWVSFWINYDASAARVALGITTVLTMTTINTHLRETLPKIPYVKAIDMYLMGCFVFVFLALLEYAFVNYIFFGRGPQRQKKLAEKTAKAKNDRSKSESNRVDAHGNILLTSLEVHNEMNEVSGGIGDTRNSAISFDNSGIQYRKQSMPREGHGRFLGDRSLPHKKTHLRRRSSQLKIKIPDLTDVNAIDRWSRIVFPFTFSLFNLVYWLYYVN
T2 sequence (P18507 40-475): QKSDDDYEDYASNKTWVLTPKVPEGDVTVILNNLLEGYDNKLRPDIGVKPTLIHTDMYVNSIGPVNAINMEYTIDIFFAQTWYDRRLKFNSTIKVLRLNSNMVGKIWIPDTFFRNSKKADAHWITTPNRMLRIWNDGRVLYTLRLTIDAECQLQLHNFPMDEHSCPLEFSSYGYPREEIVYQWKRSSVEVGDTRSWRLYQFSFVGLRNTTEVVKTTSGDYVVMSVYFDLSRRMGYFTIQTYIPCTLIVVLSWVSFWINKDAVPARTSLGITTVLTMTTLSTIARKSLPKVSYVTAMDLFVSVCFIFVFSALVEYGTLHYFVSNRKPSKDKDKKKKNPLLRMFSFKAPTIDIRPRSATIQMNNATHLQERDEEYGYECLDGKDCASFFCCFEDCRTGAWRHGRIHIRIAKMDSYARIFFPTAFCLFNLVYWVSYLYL

Take `NS(=O)(=O)N[C@H]1c2c(F)cc(F)cc2CC1(F)F` [E2730]: in data set [1], the TD50 at 1 h came out at 350 mg/kg. Moreover, the ED50 with Fmr1 KO mice is 17.1 mg/kg; in data set [4] it was 17 mg/kg. Further, the “displacement of [3H]E2730 binding” value in data set [2] was “displaced the radiolabeled [^3H]E2730 in a concentration‐dependent manner”. Further, the “effect on GABA-induced current” value in data set [3] was “did not directly affect”. Moreover, the IC50 against hGAT2 is above 1000 µM. For the same compound, in data set [5], the “binding in panel assay” value is on record as “no significant binding”.
